Consider two molecules from patent EP3785696A1, “COSMETIC USE OF AROMATIC FORMAMIDINE DERIVATIVES” (B.R.A.I.N. Biotechnology Research And Information Network AG, priority 2019, dated 2021).

Common to all, as to type: cell-based
Assay [1] addresses T1, MC5-R (Homo sapiens, UniProt P33032).
T1 construct: MC5-R cDNA expression results in MC5-R protein NP_005904.1; expressed in transfected cells; host or cells: HEK293/Gα15 cells
The assay is described as follows: Determination of compound activity on MC5-R (antagonist testing, Fluo-4 Ca2+ fluorescence in HEK293/Gα15 cells). The settings on record: Figure 2; 25 µM, added 10 min prior stimulation with αMSH (EC80). The text has this:
HEK293 cells stably expressing the target receptor MC5-R and the promiscuous murine Gα15 protein were established on the basis of the above-mentioned HEK293/Gα15 cell line. These cells were further transfected with an expression vector comprising the human MC5-receptor cDNA. MC5-R cDNA expression results in MC5-R protein NP_005904.1.
Stimulation of MC5-R with αMSH increases intracellular Ca^2+-concentration, inhibition of MC5-R decreases these αMSH induced Ca^2+-responses. Changes in intracellular Ca^2+-levels were measured via the Ca^2+-sensitive fluorescent dye Fluo-4 in a fluorescent plate reader.
(§1) For antagonist-testing, test compound was added to cells with a final concentration of 25 µM 10 min prior stimulation with αMSH (using EC80). The threshold for antagonistic activity was defined as 70% of the positive control αMSH (the EC80 value is set as 100%), and the assay was accepted as valid if the standard deviation of the αMSH signal is 10% or less.

In assay [2] the target is T2, MC1-R (Homo sapiens, UniProt Q01726, A105V).
T2 construct: MC1-R cDNA expression results in the corresponding protein (NP_002377.4); expressed in transfected cells
T2 sequence (Q01726 1-317 A105V): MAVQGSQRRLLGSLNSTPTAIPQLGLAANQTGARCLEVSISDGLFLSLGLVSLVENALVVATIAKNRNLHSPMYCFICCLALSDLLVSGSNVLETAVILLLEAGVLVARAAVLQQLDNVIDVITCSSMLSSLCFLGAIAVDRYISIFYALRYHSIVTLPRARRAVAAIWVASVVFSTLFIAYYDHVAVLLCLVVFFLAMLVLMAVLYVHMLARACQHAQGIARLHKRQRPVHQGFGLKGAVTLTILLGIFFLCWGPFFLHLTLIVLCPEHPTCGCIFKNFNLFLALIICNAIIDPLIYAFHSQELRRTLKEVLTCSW
Briefly: Determination of compound activity on MC1-R (antagonist testing, Fluo-4 Ca2+ fluorescence in HEK293/Gα15/MC1-R cells). The settings on record: 25 µM. From the text: A MC1-R expressing cell line for assessing melanogenesis modulating activity was established based on engineered HEK 293 cells, stably expressing the murine G-protein Gα15 (NM_010304.3). The promiscuous Gα15 protein couples to MC1-R and therefore links receptor stimulation to Ca^2+-signaling.
To achieve a stable expression of the target receptor this HEK293/Gα15 cell line was further stably transfected with an expression vector for the human MC1-R receptor. MC1-R cDNA expression results in the corresponding protein (NP_002377.4 with an amino acid replacement at position 105 (A105V)).
HEK293 cells stably expressing the target receptor MC1-R and the promiscuous murine Gα15 protein (HEK293/Gα15/MC1-R) were established as described above. […] Changes in internal Ca^2+-concentration are measured via the Ca^2+-sensitive fluorescent dye Fluo-4 (2-{[2-(2-{5-[bis(carboxymethyl)amino]-2-methyl-phenoxy}ethoxy)-4-(2,7-difluoro-6-hydroxy-3-oxo-3H-xanthen-9-yl)phenyl](carboxymethyl)amino}acetic acid) in a fluorescence plate reader (FLEX-Station, Molecular Devices) at an excitation wavelength of 488nm and emission of 535nm.
Recombinant HEK293/Gα15/MC1-R cells were cultured in DMEM with 10% FBS, 2mM glutamine, 1,3 mg/ml geneticin and 5 µg/ml blasticidin. Cells were seeded in 96 well, poly-D-lysine coated, black well/ clear bottom fluorescence plates in medium without antibiotics. […]

Assay [3] addresses T3, MC2-R (Homo sapiens, UniProt Q01718).
T3 construct: MC2-R cDNA expression results in MC2-R protein NP_000520.1; expressed in transfected cells; host or cells: HEK293/Gα15 cells
Briefly: Determination of compound activity on MC2-R (antagonist testing, Fluo-4 Ca2+ fluorescence in HEK293/Gα15 cells with MC2-R and MRAP). The settings on record: Figure 2; 25 µM, added 10 min prior addition of ACTH (EC80). From the text:
HEK293 cells stably expressing the target receptor MC2-R, the accessory protein MRAP and the promiscuous murine Gα15 protein were established on basis of the above-mentioned HEK293/Gα15 cell line. These cells were further transfected with an expression vector comprising human MC2-receptor and additional MRAP (MC2-Receptor Accessory Protein) cDNA. MC2-R cDNA expression results in MC2-R protein NP_000520.1, MRAP cDNA expression results in MRAP protein NP_848932.1.
Stimulation of MC2-R with ACTH (adrenocorticotropic hormone) increases intracellular Ca^2+-concentration, inhibition of MC2-R decreases these ACTH induced Ca^2+-responses. Changes in intracellular Ca^2+-levels were measured via the Ca^2+-sensitive fluorescent dye Fluo-4 in a fluorescent plate reader.
For antagonist-testing, test compound was added to cells with a final concentration of 25 µM 10 min prior addition of ACTH (EC80). The threshold for antagonistic activity was defined in this experiment as 70% of the positive control ACTH (the EC80 value is set as 100%), and the assay was accepted as valid if the standard deviation of the ACTH signal is 10% or less.

Assay [4] has as its target T4, MC3-R (Homo sapiens, UniProt P41968).
T4 construct: MC3-R cDNA expression results in MC3-R protein NP_063941.3; expressed in transfected cells; host or cells: HEK293/Gα15 cells
The assay is described as follows: Determination of compound activity on MC3-R (antagonist testing, Fluo-4 Ca2+ fluorescence in HEK293/Gα15 cells). The settings on record: Figure 2; 25 µM, added 10 min prior stimulation with αMSH (EC80).
Excerpt: HEK293 cells stably expressing the target receptor MC3-R and the promiscuous murine Gα15 protein were established on basis of the above-mentioned HEK293/Gα15 cell line. These cells were further transfected with an expression vector comprising the human MC3-receptor cDNA. MC3-R cDNA expression results in MC3-R protein NP_063941.3.
Stimulation of MC3-R with αMSH increases intracellular Ca^2+-concentration, inhibition of MC3-R decreases these αMSH induced Ca^2+-responses. Changes in intracellular Ca^2+-levels were measured via the Ca^2+-sensitive fluorescent dye Fluo-4 in a fluorescent plate reader.
as §1

Assay [5] addresses T5, MC4-R (Homo sapiens, UniProt P32245).
T5 construct: MC4-R cDNA expression results in MC4-R protein NP_005903.2; expressed in transfected cells; host or cells: HEK293/Gα15 cells
The assay is described as follows: Determination of compound activity on MC4-R (antagonist testing, Fluo-4 Ca2+ fluorescence in HEK293/Gα15 cells). The settings on record: Figure 2; 25 µM, added 10 min prior stimulation with αMSH (EC80).
Excerpt: HEK293 cells stably expressing the target receptor MC4-R and the promiscuous murine Gα15 protein were established on basis of the above-mentioned HEK293/Gα15 cell line. These cells were further transfected with an expression vector comprising the human MC4-receptor cDNA. MC4-R cDNA expression results in MC4-R protein NP_005903.2.
Stimulation of MC4-R with αMSH increases intracellular Ca^2+-concentration, inhibition of MC4-R decreases these αMSH induced Ca^2+-responses. Changes in intracellular Ca^2+-levels were measured via the Ca^2+-sensitive fluorescent dye Fluo-4 in a fluorescent plate reader.
as §1

Assay [6] concerns MelanoDerm™ (Mattek Corp.) tissues. Briefly: MelanoDerm™ assay: melanin content in reconstructed skin tissues. The note with it: 336 h, 14 days of treatment, melanin content normalized on protein content, read-out: % inhibition relative to negative control. As to the method:
Phenotypic skin lightening was assessed in reconstructed skin using MelanoDerm™ (Mattek Corp.) tissues (Figure 1).
Controls were: negative control (ultrapure water) and positive control (10 µM Ketoconazol). Test compounds were prepared in DMSO with a concentration of 10 mM and diluted in EPI-100-LLM medium (Mattek Corp.) to a final concentration of 25 µM.
MelanoDerm™ tissues were equilibrated in pre-warmed EPI-100-LLMM medium (6-Well plates, 5 ml per well) for 1 h (37°C, 5 % CO2) before treatment. Test compounds were applied systemically by addition into the culture medium. […] At the end of the treatment, tissues were analyzed via macroscopic/microscopic images and in vitro assay, for viability and for melanin content. […] Cytotoxicity was assessed using microscopic tissue images (10× magnification). Tissue viability as a result of test compound relative to negative control was determined using Cell Proliferation Reagent WST-1 (cat# 05015944001, Roche). For melanin quantitation tissues were submerged for 5 min in phosphate buffered saline (PBS, 5 ml), removed from PBS and rinsed with additional 2 ml PBS. […] All incubated samples were centrifuged at 13,000 rpm for 5 min and the optical density of the supernatant (200 µl) was measured at 490 nm. The amount of melanin (µg) from each tissue sample was determined using the melanin standard samples calibration curve. […]

T4 sequence (P41968 whole entry): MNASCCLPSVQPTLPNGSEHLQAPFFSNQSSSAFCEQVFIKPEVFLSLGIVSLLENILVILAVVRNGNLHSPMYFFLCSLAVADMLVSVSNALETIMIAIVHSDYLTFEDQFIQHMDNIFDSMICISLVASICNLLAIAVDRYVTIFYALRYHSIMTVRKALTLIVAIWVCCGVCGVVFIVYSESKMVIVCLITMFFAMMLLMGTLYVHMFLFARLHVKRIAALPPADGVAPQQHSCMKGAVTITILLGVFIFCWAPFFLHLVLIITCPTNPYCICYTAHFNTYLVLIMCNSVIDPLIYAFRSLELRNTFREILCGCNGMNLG
T3 sequence (Q01718 whole entry): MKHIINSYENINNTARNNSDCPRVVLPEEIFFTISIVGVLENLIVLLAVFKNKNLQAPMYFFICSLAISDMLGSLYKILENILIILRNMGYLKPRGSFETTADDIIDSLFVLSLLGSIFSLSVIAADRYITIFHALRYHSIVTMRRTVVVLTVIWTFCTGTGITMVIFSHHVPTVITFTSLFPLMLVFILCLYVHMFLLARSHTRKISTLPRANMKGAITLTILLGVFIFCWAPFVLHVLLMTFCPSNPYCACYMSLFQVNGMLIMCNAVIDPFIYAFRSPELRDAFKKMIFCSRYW
T3 sequence (Q8TCY5 whole entry partner): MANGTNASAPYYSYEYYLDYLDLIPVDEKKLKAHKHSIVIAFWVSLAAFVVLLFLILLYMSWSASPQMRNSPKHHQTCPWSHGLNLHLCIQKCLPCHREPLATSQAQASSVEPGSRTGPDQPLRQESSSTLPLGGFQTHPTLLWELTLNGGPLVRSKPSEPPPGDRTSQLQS
T1 sequence (P33032 whole entry): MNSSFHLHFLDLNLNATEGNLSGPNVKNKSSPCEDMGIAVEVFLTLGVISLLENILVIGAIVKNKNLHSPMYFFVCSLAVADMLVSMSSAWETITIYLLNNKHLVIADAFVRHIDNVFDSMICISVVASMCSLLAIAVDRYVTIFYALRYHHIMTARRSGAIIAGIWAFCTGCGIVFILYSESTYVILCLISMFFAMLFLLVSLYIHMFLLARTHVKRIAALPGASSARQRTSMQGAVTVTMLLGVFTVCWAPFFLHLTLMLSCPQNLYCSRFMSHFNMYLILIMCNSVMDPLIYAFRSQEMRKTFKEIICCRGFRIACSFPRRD
T5 sequence (P32245 whole entry): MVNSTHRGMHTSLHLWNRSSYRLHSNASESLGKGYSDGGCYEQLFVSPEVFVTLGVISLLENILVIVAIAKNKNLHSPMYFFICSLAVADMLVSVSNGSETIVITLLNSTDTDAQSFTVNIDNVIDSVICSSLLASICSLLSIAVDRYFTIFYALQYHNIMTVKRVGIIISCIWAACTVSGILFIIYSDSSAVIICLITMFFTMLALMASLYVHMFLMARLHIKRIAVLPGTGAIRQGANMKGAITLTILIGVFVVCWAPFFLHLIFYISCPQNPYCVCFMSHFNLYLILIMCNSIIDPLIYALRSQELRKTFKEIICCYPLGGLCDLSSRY

In general, inhibition refers to the relative decrease from the control value, in per cent. On to `COc1ccc(CSC(=N)N)cc1Br` [Compound (III)], for which the “activity of MC5R” value in assay [1] is “not significantly affected”. Moreover, the “reduce MC1R activation by” value in assay [2] (added 10 min prior stimulation with αMSH (EC80 set as 100%)) is listed as 51,3%. Besides, the “reduce MC1R activation to” value in assay [2] (Figure 2, αMSH (EC80) signal set as 100%, remaining activation) was “about 50%”. In addition, the “activity of MC2R” value in assay [3] is on record as “not significantly affected”. In addition, the “activity of MC3R” value in assay [4] is listed as “not significantly affected”. For the same molecule, the “activity of MC4R” value in assay [5] was “not significantly affected”. In addition, the inhibition at 25 µM in assay [6] (25 µM in culture medium) was -53.4%.
For the molecule `CC(=O)N1CCN(c2ccc(OCC3COC(Cn4ccnc4)(c4ccc(Cl)cc4Cl)O3)cc2)CC1` (centres unmarked) [Ketoconazol, reference compound], the inhibition at 10 µM in assay [6] (10 µM in culture medium) is -70.9%.
